# Experimental data: publication PMC5618191 (Toxins, 2017)
# Where two headings read alike, the source gives them in different places.
# Tests used:
# [1] = test system: KB-3-1 cells; assay: Western blot analysis of apoptosis proteins; type: cell-based, human; settings: KB-3-1, 24 h
# Procedure: (§1) 1. Supplementary Materials and Methods […]
# 1.3 Western Blot Analysis […]
# according to standard procedures, separated by SDS-PAGE, and transferred to a polyvinylidene difluoride membrane for Western blotting as described previously. The following primary antibodies specific for the following targets were diluted 1:1000 in TBST/3% BSA (w/v): PARP, Bak, Bax, Bim, Bcl-xL (polyclonal, Cell Signaling Technology, Beverly, MA, USA), caspase 9, cl. caspase 9 (monoclonal, Cell Signaling Technology) and β-actin (monoclonal, Clone AC-15, Sigma-Aldrich).
# Secondary horseradish peroxidase-labeled antibodies (goat anti-rabbit or anti-mouse, Santa Cruz Biotechnology, Dallas, Texas, TX, USA) were diluted 1:10,000 in TBST/1% BSA.
# (black circles), human non-malignant keratinocytes HaCaT (open circles), murine colon carcinoma CT-26 (asterisks), human cervix carcinoma KB-3-1 (gray triangle) and human colon carcinoma SW480 cells (gray square) at higher density. Cells were grown to a 50-60% confluence and treated with the […]
# The IC50 level is indicated by the dotted line. Mean values (± SD) of one representative experiment in triplicate are shown.
# Figure S4. […]
# Significant differences to untreated controls are marked by asterisks (***p<0.001). (c) Expression of PARP and caspase 9 and amount of cleaved (Cl.) PARP and cleaved Caspase 9, as well as protein expression of Bim, Bax, Bak and Bcl-xL in beauvericin-treated (24 h) and untreated cells were determined by Western Blotting. β-actin served as loading control. […]
# [2] = test system: KB-3-1 cells; assay: Cell cycle analysis (PI staining, flow cytometry); type: cell-based, human; settings: KB-3-1, subtoxic concentrations
# Procedure: 1. Supplementary Materials and Methods
# KB-3-1 cells (3.5x105/per well) were seeded into 6-well plates and treated the next day with the […]
# After incubation at 37°C for another 24 h, cells were trypsinized, centrifuged (8 min, 300g, RT) and fixed in 70% ethanol and stored at -20°C overnight.
# Fixed cells were centrifuged (1 min, 6000g) and resuspended in 100 µL of 0.9% NaCl. RNA was digested with 0.2 mg/mL of RNase for 30 min at 37°C. DNA was stained with propidium iodide (PI, 0.01 mg/mL, Sigma-Aldrich St. Louis, Missouri, USA) for 30 min at 4°C in the dark. Afterwards, cells were analyzed by flow cytometry using FACS Calibur (BD Biosciences, Franklin Lakes, New Jersey, USA) as described previously. CellQuest Pro software (BD Biosciences) was utilized to determine percentages of the respective cell cycle phases. […]
# (§2) The following primary […]
# (§3) antibodies specific for the following targets were diluted 1:1000 in TBST/3% BSA (w/v): PARP, Bak, Bax, Bim, Bcl-xL (polyclonal, Cell Signaling Technology, Beverly, MA, USA), caspase 9, cl. caspase 9 (monoclonal, Cell Signaling Technology) and β-actin (monoclonal, Clone AC-15, Sigma-Aldrich).
# (§4) Secondary horseradish peroxidase-labeled antibodies (goat anti-rabbit or anti-mouse, Santa Cruz Biotechnology, Dallas, Texas, TX, USA) were diluted 1:10,000 in TBST/1% BSA. […]
# [3] = test system: KB-3-1 cells; assay: Annexin-V/PI staining (cell death analysis); type: cell-based, human; settings: KB-3-1, 24 h
# Procedure: as §1
# 1.2 Annexin-V/PI Staining
# KB-3-1 cells were seeded (2x10^5cells/well) and treated on the following day for 24 h with the […]
# Cells were trypsinized, centrifuged (300g, 5 min) and resuspended in 100 µL buffer A (10 mM HEPES, 140 mM NaCl and 2.5 mM CaCl2) and stained for 15 min in the dark with PI (1 µg/mL) and Annexin-V-APC (20 µL/mL, BD Biosciences). Two-hundred µL of buffer A were then added and 10,000 cells were measured by FACS analysis (FACSCalibur; Becton Dickinson). Percentages of viable, early and late apoptotic cells and of necrotic cells were determined by CellQuest Pro software (Becton, Dickinson and Company, NY, USA). […]
# as §2, §3, §4
# (b) Mean percentages (± SD) of early (white bars) and late apoptotic (gray bars) and of necrotic cells (black bars) were determined by Annexin-V/PI staining after cells were treated for 24 h with the […]
# [4] = test system: KB-3-1 cells; design: method as in PMID 19517454; settings: two-year in vitro selection process; cited from earlier work
# [5] = test system: HUVEC cells; assay: Vessel forming and migratory ability of HUVEC cells; type: cell-based, human; settings: subtoxic concentrations, unpublished data
# [6] = test system: NIH/3T3 murine non-malignant fibroblasts; assay: Cell viability assay (MTT, 72 h); type: cell-based, mouse
# Procedure: (§5) For the cell lines KB-3-1 and SW480 2 × 10^3 cells, for NIH/3T3, CT-26, HaCaT, and GH354 cells 3 × 10^3 cells and for ME-180 and SW620 cells 4 × 10^3 cells were seeded into 96-well pates and incubated at 37 °C (5% CO2) overnight. […] For higher cell confluency, NIH/3T3, CT-26, HaCaT, KB-3-1, and SW480 cells were grown to a cell density of approximately 50–60% before treatment. […] The percentage of viable cells was detected after incubation with 3-(4,5-dimethylthiazol-2-yl)-2,5-diphenyltetrazolium bromide (MTT) at 37 °C for 1–4 h, depending on the cell line, according to the user manual (EZ4U, Biomedica, Vienna, Austria). […] All experiments were conducted using full-growth media with 10% FBS in triplicate and repeated three times. The cell confluency was analyzed by Image J 1.50i (NIH, New York, NY, USA).
# [7] = test system: CT-26 murine colon carcinoma cells; assay: Cell viability assay (MTT, 72 h); type: cell-based, mouse
# Procedure: as §5
# [8] = test system: KB-3-1 cervix carcinoma cells; assay: Cell viability assay (MTT, 72 h); type: cell-based, human
# Procedure: as §5
# [9] = test system: GH354 cervix adenocarcinoma cells; assay: Cell viability assay (MTT, 72 h); type: cell-based, human; settings: GH354, sparse (5–10% confluency)
# Procedure: as §5
# [10] = NIH/3T3, sparse (5–10% confluency), 72 h
# [11] = CT-26, sparse (5–10% confluency), 72 h
# [12] = KB-3-1, sparse (5–10% confluency)
substance,measurement,setting,value
beauvericin,Antiapoptotic Bcl-xL,[1],reduced
same,Cleavage of PARP and caspase 9,[1],induced
same,Proapoptotic Bcl-2 family members Bim and Bak,[1],upregulation
same,Cell cycle effect,[2],cell cycle arrest in the G0/G1-phase
same,Concentration at which induction of apoptotic cell death was clearly detectable,[3],> 2 µM
same,Acquisition of resistance,[4],did not induce beauvericin-unresponsiveness
same,Vessel forming and migratory ability of HUVEC cells,[5],distinctly inhibited
same,Viability of non-malignant cells,"[6]; 1 µM, higher density (50–60%), murine models",no reduction of viability
same,IC50,"[6]; NIH-3T3, higher density (50–60% confluency), 72 h, read-out: IC50 value",9.4 µM
same,Mean IC25 ± SD,[6]; [10],1.2 ± 0.6 µM
same,Mean IC75 ± SD,[6]; [10],6.5 ± 0.7 µM
same,IC50,"[6]; NIH/3T3, sparse (5–10% confluency), 72 h, read-out: Mean IC50 ± SD",3.1 ± 0.2 µM
same,IC50 higher for non-malignant NIH/3T3 as compared to CT-26,[6]; sparse conditions,1.7 fold
same,IC75 higher for non-malignant NIH/3T3 as compared to CT-26,[6]; sparse conditions,2.4 fold
same,Tumor cell viability,"[7]; 0.5 µM, higher density (50–60%), murine models",significantly reduced
same,Mean IC25 ± SD,[7]; [11],1.4 ± 0.2 µM
same,Mean IC75 ± SD,[7]; [11],2.7 ± 0.5 µM
same,IC50,"[7]; CT-26, sparse (5–10% confluency), 72 h, read-out: Mean IC50 ± SD",1800 ± 200 nM
same,IC50,"[8]; KB-3-1, higher density (50–60% confluency), read-out: IC50 value",4.3 µM
same,Mean IC25 ± SD,[8]; [12],2.6 ± 0.9 µM
same,Mean IC75 ± SD,[8]; [12],3.6 ± 0.9 µM
same,IC50,"[8]; KB-3-1, sparse (5–10% confluency), read-out: Mean IC50 ± SD",3.1 ± 0.7 µM
same,Mean IC25 ± SD,[9],2.2 ± 0.6 µM
same,Mean IC75 ± SD,[9],6.3 ± 2.1 µM
same,IC50,[9]; read-out: Mean IC50 ± SD,3.6 ± 1.2 µM
